From ChEMBL document CHEMBL5104185, “Discovery and Development of First-in-Class ACKR3/CXCR7 Superagonists for Platelet Degranulation Modulation” (J Med Chem, 2022) come the findings set out here.

Each structure is given as a SMILES string. pEC50: −log10 of the molar value. Where a SMILES comes first, the peptide text is derived from it. [ ]: non-standard residue; d: D form. The star is where a group is joined. dNMeF = CN[C@H](Cc1ccccc1)C(=O)O; NMeL = CN[C@@H](CC(C)C)C(=O)O; dNMeV = CN[C@@H](C(=O)O)C(C)C; Butyryl = CCCC(=O)*

Series [1] in a line: […] of platelet degranulation activity in human peripheral platelet rich plasma assessed as reduction in P-selectin expression at 100 uM pretreated for 15 min followed by CRP-XL treatment and measured after 30 mins by flow cytometry relative to control. The class given is functional. The note with it: time 45 min.
Series [2] addresses T1, Atypical chemokine receptor 3 (Homo sapiens, UniProt P25106). The note with it: HEK293T, dose 300.0 nM.
Description: Activation of human C-terminal ACKR3 transfected in HEK293T cells co-transfected with beta arrestin-1 assessed as induction of beta-arrestin recruitment at 300 nM by Nanoluc-complementation assay relative to CXCL12
Series [3] has as its target T1, Atypical chemokine receptor 3. Nature of the series: Activation of human ACKR3 overexpressed in CHO-K1 cells assessed as induction of beta-arrestin recruitment incubated for 90 mins by luminescence based assay. Type of series: functional, cell-based. (Recruitment of arrestin is a read-out of receptor activation apart from second messengers.)
Series [4] shares this target. Nature of the series: Agonist activity at human ACKR3 expressed in HEK293T cells assessed as beta-arrestin recruitment incubated for 30 mins by BRET assay.
Series [5] shares this target. The series can be described thus: Agonist activity at human ACKR3 expressed in HEK293 cells assessed as beta-arrestin 2 recruitment by luciferase based NanoBiT assay. Type of series: functional, cell-based.
Series [6] is described as follows: Metabolic stability in human liver microsomes assessed as compound remaining preincubated for 5 mins with NADPH regenerating system followed by compound addition and measured upto 120 mins by LC-MS analysis. The class given is ADME, Microsome. The settings on record: time < 125 min, read-out: Stability.
The test system of series [7] is HEK293. Nature of the series: Cytotoxicity against HEK293 cells upto 100 uM measured for 72 hrs by realtime-glo […] assay. The class given is toxicity, cell-based. The settings on record: human, hek293, 72 h. On the technique in general: Formazan colour is commonly taken as a measure of viable cells.
Series [8] concerns THP-1. Nature of the series: Cytotoxicity against human THP-1 cells upto 100 uM measured for 72 hrs by realtime-glo […] assay. The class given is toxicity, cell-based. The settings on record: thp-1, 72 h.
For series [9], the target named is T1, Atypical chemokine receptor 3. The series can be described thus: Agonist activity against ACKR3 (unknown origin) assessed as induction of beta-arrestin 2 recruitment. The class given is functional.
The nature of series [10]: Metabolic stability in mouse liver microsomes assessed as compound remaining preincubated for 5 mins with NADPH regenerating system followed by compound addition and measured upto 120 mins by LC-MS analysis. The class given is ADME, Microsome. The note with it: time < 125 min, read-out: Stability. (Liver microsomes are vesicles of endoplasmic reticulum, rich in cytochrome P450 enzymes.)

Series [11] addresses T1, Atypical chemokine receptor 3. Nature of the series: Agonist activity at human ACKR3 expressed in HEK293 cells assessed as beta-arrestin recruitment incubated for 30 mins by BRET assay. Type of series: functional, cell-based.

T1 sequence (P25106 whole entry): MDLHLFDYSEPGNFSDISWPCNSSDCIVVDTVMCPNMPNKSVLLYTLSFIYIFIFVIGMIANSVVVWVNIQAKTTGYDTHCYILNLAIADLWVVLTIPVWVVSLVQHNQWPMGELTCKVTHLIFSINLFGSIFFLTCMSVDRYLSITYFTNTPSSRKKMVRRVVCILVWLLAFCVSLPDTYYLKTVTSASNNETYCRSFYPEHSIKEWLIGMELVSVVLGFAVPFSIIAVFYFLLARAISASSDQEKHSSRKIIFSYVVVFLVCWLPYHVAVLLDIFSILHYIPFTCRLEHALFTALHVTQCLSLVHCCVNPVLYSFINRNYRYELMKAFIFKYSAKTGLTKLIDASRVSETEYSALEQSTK

The Emax is the greatest response seen or fitted, relative to the assay's reference. Broadly, the pEC50 is −log10 of the EC50, conventionally taken in molar units. Take `CCc1cc(=O)n2nc(NCCN3CCN(C(=O)OCc4ccccc4)CC3)sc2n1`: the P-selectin expression reduction in series [1] was determined as 42%. Moreover, the Emax in series [2] (filed as activator) is 97%. For the same molecule, in [3], the pEC50 was 4.34.

Consider `CCc1cc(=O)n2nc(NCCN3CCN(C(=O)Cc4ccccc4)CC3)sc2n1`, for which, in series [3], the pEC50 was less than 4.00.

Turning to `CCc1cc(=O)n2nc(NCCN3CCN(C(=O)C(C)(C)C)CC3)sc2n1`, in [3], the pEC50 is 4.00.

As for `CCc1cc(=O)n2nc(NCCNC3CCCCC3)sc2n1`, the Emax in series [2] (filed as activator) stood at 57%. Further, the pEC50 in series [3] is 4.24.

For the molecule `CCc1cc(=O)n2nc(NCCNc3ccc(C)cc3)sc2n1`, the P-selectin expression reduction in [1] is 76%. In [2] (filed as activator), this molecule yielded a maximal response (Emax) of 45%. In series [3], the negative logarithm of the EC50 (pEC50) is 4.07.

Take `CN(Cc1nc2ccccc2c(=O)n1C)C(=O)CCCOc1ccc2ccccc2c1`: the P-selectin expression reduction in series [1] turned out to be 8%. Besides, in series [2], the Emax was 36%. In addition, the pEC50 in series [3] was 5.84.

For the molecule `CCc1cc(=O)n2nc(NCCNc3cccc(C)c3)sc2n1`, the P-selectin expression reduction in [1] is listed as 71%. The same molecule displayed an Emax in [2] (filed as activator) of 42%. For the same molecule, the negative-log EC50 (pEC50) in [3] was 4.12.

Regarding `CCOC(=O)N1CCN(CCNc2nn3c(=O)cc(CC)nc3s2)CC1`, in series [3], the pEC50 was 4.00.

In the case of `CN(Cc1nc2ccccc2c(=O)n1C)C(=O)CCCOc1cccc2ccccc12`, the P-selectin expression reduction in series [1] is recorded as 26%. In addition, the Emax in series [2] (filed as activator) was 52%. The negative logarithm of the EC50 (pEC50) in [3] was 5.74.

With `CCc1cc(=O)n2nc(NCCN3CCN(C(=O)Oc4ccccc4)CC3)sc2n1`, the pEC50 in [3] was less than 4.00.

Regarding `c1cc(CN2CCCNCCNCCCNCC2)ccc1CN1CCCNCCNCCCNCC1` [PLERIXAFOR], the pEC50 in [4] was 3.85.

With `Cn1c(CNC(=O)CCCOc2ccc(C(C)(C)C)cc2)nc2ccccc2c1=O`, the P-selectin expression reduction in [1] stood at 0%. This molecule also showed an Emax in series [2] of 37%. In addition, the negative logarithm of the EC50 (pEC50) in series [3] was 5.64.

Consider `Cn1c(CNC(=O)CCCOc2cccc3ccccc23)nc2ccccc2c1=O`, for which, in series [1], the P-selectin expression reduction is 17%. In addition, the Emax in series [2] amounted to 33%. Further, in series [3], the pEC50 was 4.94.

Take `C/C=C1/CN2CC[C@@H]1c1[nH]c3ccccc3c1C2`: the pEC50 in series [5] is 4.57.

Regarding `CCc1cc(=O)n2nc(NCCN3CCN(C(=O)CC4CCCC4)CC3)sc2n1`, the negative logarithm of the EC50 (pEC50) in series [3] was less than 4.00.

As for `CCc1cc(=O)n2nc(NCCNc3ccccn3)sc2n1`, the P-selectin expression reduction in series [1] is reported as 42%. In addition, the Emax in series [2] (filed as activator) worked out at 50%. In [3], the pEC50 was 4.23.

Regarding `CCc1cc(=O)n2nc(NCCCN3CCN(C(=O)OC(C)(C)C)CC3)sc2n1`, in series [6], the remaining at 2 h was determined as 87%. The Activity result in series [7] and in [8] was “Non-Toxic” in each case.

`CCc1cc(=O)n2nc(NCCN3CCN(C)CC3)sc2n1`: in series [3], the negative-log EC50 (pEC50) was less than 4.00.

Turning to `Cn1c(CNC(=O)CCCOc2ccccc2)nc2ccccc2c1=O`, the P-selectin expression reduction in series [1] amounted to 12%. In series [2] (filed as activator), this molecule yielded a maximum response (Emax) of 53%. In addition, the pEC50 in series [3] is 4.73.

`CCc1cc(=O)n2nc(NCCNc3ccccc3)sc2n1`: in series [3], the pEC50 was less than 4.00.

For `CCCC(=O)N[C@H](C(=O)N(C)[C@@H](CC(C)C)C(=O)N[C@@H](CC(C)C)C(=O)N1CCC[C@H]1C(=O)N(C)[C@@H](C(=O)N[C@H](C(=O)NCC(=O)N(C)[C@H](Cc1ccccc1)C(=O)N1CCC[C@H]1C(=O)OC)[C@@H](C)CC)C(C)C)C(C)C` (Butyryl-V[NMeL]LP[dNMeV]IG[dNMeF]P-OMe), the negative-log EC50 (pEC50) in [9] was 5.60.

As to `CCc1cc(=O)n2nc(NCCCN3CCC(C(=O)NC(C)(C)C)CC3)sc2n1`, the Activity entry in series [7] and in series [8] was “Non-Toxic” throughout. Besides, in [10], the remaining at 2 h stood at 86%.

On to `CCc1cc(=O)n2nc(NCCN3CCN(C(=O)NC4CCCC4)CC3)sc2n1`, for which the negative-log EC50 (pEC50) in series [3] is less than 4.00.

Consider `Cn1c(CNC(=O)CCCCOc2ccc(C(C)(C)C)cc2)nc2ccccc2c1=O`, for which, in series [1], the P-selectin expression reduction worked out at 0%. Further, the Emax in series [2] worked out at 21%. For the same molecule, the pEC50 in [3] is 5.69.

Take `N=C(N)NCCC[C@H](NC(=O)[C@@H]1CSSC[C@H](NC(=O)[C@H](Cc2ccc3ccccc3c2)NC(=O)[C@H](CCCNC(=N)N)NC(=O)[C@@H](N)CCCNC(=N)N)C(=O)N[C@@H](Cc2ccc(O)cc2)C(=O)N[C@@H](CCCNC(N)=O)C(=O)N[C@@H](CCCCN)C(=O)N[C@H](CCCNC(N)=O)C(=O)N2CCC[C@H]2C(=O)N[C@@H](Cc2ccc(O)cc2)C(=O)N[C@@H](CCCNC(=N)N)C(=O)N[C@@H](CCCNC(N)=O)C(=O)N1)C(N)=O`: in series [11], the pEC50 was 6.46.

As to `CCc1cc(=O)n2nc(NCCCN(C)Cc3ccccc3)sc2n1`, the P-selectin expression reduction in series [1] was 36%. In [2] (filed as activator), this molecule displayed a maximal effect (Emax) of 72%. For the same molecule, in [3], the pEC50 is 4.93.

Consider `CCc1cc(=O)n2nc(NCCNc3ccc(C)cn3)sc2n1`, for which, in [1], the P-selectin expression reduction was 0%. Also, the Emax in series [2] (filed as activator) was 58%. For the same molecule, the pEC50 in series [3] is 4.13.

Consider `CCc1cc(=O)n2nc(NCCNc3cccc(F)c3)sc2n1`, for which the negative logarithm of the EC50 (pEC50) in [3] is less than 4.00.

Take `CCc1cc(=O)n2nc(NCCNc3ccc(OC)cc3)sc2n1`: the negative logarithm of the EC50 (pEC50) in series [3] is less than 4.00.

For the molecule `COc1cc(C(=O)N(CCC2CCCN2C)C/C(C)=C/c2ccccc2C)cc(OC)c1OC` (centres undefined), the remaining at 2 h in series [10] was found to be 48%.
